Columns and labels:
Fer = biological target: T1, Fer (Homo sapiens, UniProt P16591); assay: in-vivo Fer activity assay: auto-phosphorylation of Fer in HCT116 CC cells (IP, anti-phosphotyrosine western blot); assay type: cell-based; details: serum deprived 24 h with 2 μM 0260, 20 mM H2O2 15 min before harvest
T1 construct: endogenous in cells; host or cells: HCT116 colon carcinoma cells
Method: HCT116 CC cells were deprived of serum for 24 h in the presence of 2 μM 0260 or 0.5% DMSO (the solvent). 15 min before harvest cells were treated with 20 mM H2O2— for activation and auto-phosphorylation of Fer. Protein lysates were prepared from cells: starved in the presence of DMSO and treated with H2O2 (1), starved in the presence of 0260 and treated with H2O2 (2), and from untreated cells (3). Fer was immuno-precipitated, resolved in SDS-PAGE and reacted with anti-phosphotyrosine (pY— upper panel) or anti-Fer antibodies (lower panel) in a western blot analysis.
After extraction of cellular proteins, a protein sample of 750-1000 μg was diluted 3fold with TGET buffer (20 mM Tris-HCl (Ph7.5), 1 mM EDTA, 0.1% Triton X100 and 10% Glycerol) with […] and protease inhibitors and incubated with the indicated antibody at a dilution of 1:100 overnight at 4° C. with shaking. At the end of the incubation, 25 μl Protein A/G suspension was added bound to agarose beads. The mixture was shaken for another 90 min at 4° C. The immune complex precipitate was obtained after centrifugation for 20 min at maximum speed and then washed three times in extraction buffer: twice with buffer TGET NaCl 150 mM and once with TGET NaCl 75 mM. The precipitate was suspended in 2× loading buffer. […]

[1] = tested on: human foreskin cells (FS11); assay: Dead cells fraction by FACS (PI), normal FS11 cells; assay type: cell-based; details: up to 1000 μM DG and 1 μM compound 0260, alone or in combinations
Method: (§1) Florescence assisted cell sorting (FACS) was performed as described in Pasder O, et al. [Pasder O, et al. Oncogene 2006; 25(30):4194-206]. Cells were rinsed twice with cold PBS, and then harvested by treatment with trypsin. Suspended cells were washed twice in 10 ml cold PBS and centrifuged at 500 g for 5 min. In cell cycle analyses, the pellet was resuspended in 200 μl cold PBS and cells were stained in the dark with 200 μl propidium iodide (PI) solution (20 mM Tris, pH 8, 1 mM NaCl, 0.1% (v/v) NP-40, 1.4 mg/ml RNase A, 0.05 mg/ml PI) for 30 min at […]. In experiments to determine the fraction of dead cells in a population of cells, the detergent NP-40 was omitted. The total cellular DNA content was determined using a Becton Dickinson flow cytometer (FACSCalibur). The data were analyzed using Cell Quest Pro software (Becton Dickinson) and ModFit LT software.
(§2) To study the effect of various combinations of Fer and glycolysis inhibitors on cell cycle progression, various concentrations of 0260 and DG alone and in combination were tested in Hep3B liver cancer cells and on human foreskin cells (FS11) as a non-cancer controls.

Hep3B liver cancer cells = assay: Dead cells fraction by FACS (PI), Hep3B; assay type: cell-based, human; details: compounds alone or in combination
Method: as §1, §2

[2] = tested on: HCT116 colon cancer cells; assay: Dead cells fraction by FACS (PI), HCT116; assay type: cell-based; details: compounds alone or in combination
Method: as §1

T1 sequence (P16591 whole entry): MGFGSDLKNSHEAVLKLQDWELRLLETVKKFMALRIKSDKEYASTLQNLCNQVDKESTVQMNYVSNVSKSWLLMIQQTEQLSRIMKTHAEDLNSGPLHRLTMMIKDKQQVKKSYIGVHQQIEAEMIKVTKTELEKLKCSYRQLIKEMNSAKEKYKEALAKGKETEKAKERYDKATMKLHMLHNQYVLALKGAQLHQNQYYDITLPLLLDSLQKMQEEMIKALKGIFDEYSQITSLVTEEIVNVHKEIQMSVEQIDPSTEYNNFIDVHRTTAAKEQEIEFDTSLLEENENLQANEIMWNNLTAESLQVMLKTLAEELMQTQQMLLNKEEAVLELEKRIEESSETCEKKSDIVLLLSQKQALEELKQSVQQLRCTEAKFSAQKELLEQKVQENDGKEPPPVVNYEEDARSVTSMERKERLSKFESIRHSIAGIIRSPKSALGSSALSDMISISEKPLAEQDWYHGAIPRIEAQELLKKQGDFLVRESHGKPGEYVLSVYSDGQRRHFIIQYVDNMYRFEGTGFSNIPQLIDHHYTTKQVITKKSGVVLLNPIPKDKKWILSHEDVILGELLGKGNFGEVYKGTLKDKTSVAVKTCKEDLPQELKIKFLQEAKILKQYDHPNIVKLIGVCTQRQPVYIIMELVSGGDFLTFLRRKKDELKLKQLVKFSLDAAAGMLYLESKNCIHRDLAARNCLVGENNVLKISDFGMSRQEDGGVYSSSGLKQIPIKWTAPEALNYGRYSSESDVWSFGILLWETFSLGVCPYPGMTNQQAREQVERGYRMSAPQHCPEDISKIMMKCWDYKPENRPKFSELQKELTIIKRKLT

SMILES: CC(C)c1ccc(-c2cn3nc(N4CCC(CN5CCN(C)CC5)CC4)sc3n2)cc1 [compound 0260, 6-(4-isopropyl-phenyl)-2-{4-[(4-methyl-piperazin-1-yl)methyl]piperidin-1-yl}imidazo[2,1-b][1,3,4]thiadiazole]
- inhibition of Fer auto-phosphorylation (Fer): efficient inhibition
- dead cells fraction [1]: only minor effects
- dead cells fraction (Hep3B liver cancer cells): only minor effect
- dead cells fraction [2]: only minor effect

SMILES: O=CC[C@@H](O)[C@H](O)[C@H](O)CO [DG, 2-deoxyglucose, reference compound]
- dead cells fraction [1]: only minor effects
- dead cells fraction (Hep3B liver cancer cells): only minor effect
- dead cells fraction [2]: only minor effect
